Data published in PMC11743026, “Cortisol regulates neonatal lung development via Smoothened” (Respiratory Research, 2025).

Experiments:
[1] = target: T1, Smoothened (SMO) (Homo sapiens, UniProt Q99835, Y394F); experiment: pull-down of purified Y394F SMO on biotinylated cholesterol beads; assay type: binding
T1 construct: purified Y394F SMO

[2] = target: T2, Smoothened (SMO) (Homo sapiens, UniProt Q99835, L112A); experiment: pull-down of purified L112A SMO or CRD on biotinylated cholesterol beads; assay type: binding
T2 construct: purified L112A SMO; also the L112A CRD fragment
T2 sequence (Q99835 28-787 L112A): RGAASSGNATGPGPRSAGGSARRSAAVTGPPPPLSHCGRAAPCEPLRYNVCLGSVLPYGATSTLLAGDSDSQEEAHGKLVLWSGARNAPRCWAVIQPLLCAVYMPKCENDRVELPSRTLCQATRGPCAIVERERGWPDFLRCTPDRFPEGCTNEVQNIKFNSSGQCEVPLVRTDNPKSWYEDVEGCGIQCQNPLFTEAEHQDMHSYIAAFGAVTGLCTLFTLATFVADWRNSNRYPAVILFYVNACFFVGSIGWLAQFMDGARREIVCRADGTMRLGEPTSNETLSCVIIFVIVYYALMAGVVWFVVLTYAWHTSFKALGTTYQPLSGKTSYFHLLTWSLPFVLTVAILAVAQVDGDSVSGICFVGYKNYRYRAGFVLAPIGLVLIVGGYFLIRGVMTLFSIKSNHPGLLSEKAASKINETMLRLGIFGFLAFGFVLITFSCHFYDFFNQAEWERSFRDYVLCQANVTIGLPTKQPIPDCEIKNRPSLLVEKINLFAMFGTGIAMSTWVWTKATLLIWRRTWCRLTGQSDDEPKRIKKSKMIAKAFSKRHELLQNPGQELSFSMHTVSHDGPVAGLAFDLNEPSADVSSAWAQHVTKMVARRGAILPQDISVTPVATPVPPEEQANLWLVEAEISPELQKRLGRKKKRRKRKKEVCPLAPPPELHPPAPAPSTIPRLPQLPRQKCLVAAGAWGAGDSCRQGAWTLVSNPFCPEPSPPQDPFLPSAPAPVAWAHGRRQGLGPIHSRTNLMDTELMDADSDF

[3] = target: T1, Smoothened (SMO); experiment: free cortisol competes with biotinylated cholesterol beads for purified Y394F SMO; assay type: binding
[4] = target: T3, Smoothened (SMO) (Homo sapiens, UniProt Q99835); experiment: Asp-evoked current in HeLa cells expressing WT SMO; effect lost with L112A; assay type: cell-based
T3 construct: full-length SMO expressed in HeLa cells
T3 sequence (Q99835 28-787): as the sequence (Q99835 28-787 L112A) above, with A85L counted along it

T1 sequence (Q99835 28-787 Y394F): as the sequence (Q99835 28-787 L112A) above, with A85L, Y367F counted along it

## CC(C)CCC[C@@H](C)[C@H]1CC[C@H]2[C@@H]3CC=C4C[C@@H](O)CC[C@]4(C)[C@H]3CC[C@]12C [Chol, cholesterol]
[1]
  pull-down of purified Y394F SMO on biotinylated cholesterol beads: mutation of the Y394 to F394 did not change CB binding to the SMO
[2]
  pull-down of purified L112A SMO or CRD on biotinylated cholesterol beads: The CB remained binding to the purified WT and L112A SMO

## C[C@]12CCC(=O)C=C1CC[C@@H]1[C@@H]2[C@@H](O)C[C@@]2(C)[C@H]1CC[C@]2(O)C(=O)CO [Cort, cortisol]
[3]
  free cortisol competes with biotinylated cholesterol beads for purified Y394F SM: cortisol remained inhibiting the CB binding to the mutated SMO in a dose-dependent manner

## C[C@]12C[C@H](O)[C@H]3[C@@H](CCC4=CC(=O)CC[C@@]43C)[C@@H]1CC[C@@H]2C(=O)CO [corticosterone]
[4]
  Asp-evoked current in HeLa cells expressing WT SMO; effect lost with L112A: The corticosterone inhibition was not observed in the L112A mutant SMO cells
